Tests used:
[1] = target: T1, human recombinant adrenergic α2A receptor (Homo sapiens, UniProt P08913); experiment: Radioligand binding, adrenergic α2A receptor ([3H]MK-912); settings: 0.1 μM compound; Sf9 cells; 1 nM [3H]MK-912; read-out: Percentage inhibition of ligand binding, Adrenergic α2A
T1 construct: expressed in transfected cells; host or cells: insect Sf9 cells
T1 sequence (P08913 1-465): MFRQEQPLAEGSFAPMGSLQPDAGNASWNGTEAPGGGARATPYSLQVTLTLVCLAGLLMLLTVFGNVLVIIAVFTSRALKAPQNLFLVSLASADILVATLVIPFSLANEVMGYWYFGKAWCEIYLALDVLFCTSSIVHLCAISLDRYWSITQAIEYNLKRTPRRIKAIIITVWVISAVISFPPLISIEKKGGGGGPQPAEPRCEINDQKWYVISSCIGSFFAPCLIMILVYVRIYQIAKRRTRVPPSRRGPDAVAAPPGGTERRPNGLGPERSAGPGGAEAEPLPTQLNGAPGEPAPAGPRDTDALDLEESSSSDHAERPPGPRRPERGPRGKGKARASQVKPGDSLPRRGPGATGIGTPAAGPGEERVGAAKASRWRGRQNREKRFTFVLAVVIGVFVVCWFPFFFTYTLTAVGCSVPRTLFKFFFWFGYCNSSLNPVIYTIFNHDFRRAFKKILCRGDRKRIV
How it was run: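 Percent inhibition of specific [3H]MK-912 (1 nM) binding measured by filtration counting, compounds tested at ≤1 μM in 1% DMSO. Receptor: human α2A from Sf9 cells; incubation 60 min, 25 °C, pH 7.4; 10 μM WB-4101 defined nonspecific binding.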

[2] = target: T2, human recombinant adrenergic α2B receptor (Homo sapiens, UniProt P18089); experiment: Radioligand binding, adrenergic α2B receptor ([3H]Rauwolscine); settings: 0.1 μM compound, CHO-K1 cells, read-out: Percentage inhibition of ligand binding, Adrenergic α2B
T2 construct: expressed in transfected cells; host or cells: CHO-K1
T2 sequence (P18089 1-450): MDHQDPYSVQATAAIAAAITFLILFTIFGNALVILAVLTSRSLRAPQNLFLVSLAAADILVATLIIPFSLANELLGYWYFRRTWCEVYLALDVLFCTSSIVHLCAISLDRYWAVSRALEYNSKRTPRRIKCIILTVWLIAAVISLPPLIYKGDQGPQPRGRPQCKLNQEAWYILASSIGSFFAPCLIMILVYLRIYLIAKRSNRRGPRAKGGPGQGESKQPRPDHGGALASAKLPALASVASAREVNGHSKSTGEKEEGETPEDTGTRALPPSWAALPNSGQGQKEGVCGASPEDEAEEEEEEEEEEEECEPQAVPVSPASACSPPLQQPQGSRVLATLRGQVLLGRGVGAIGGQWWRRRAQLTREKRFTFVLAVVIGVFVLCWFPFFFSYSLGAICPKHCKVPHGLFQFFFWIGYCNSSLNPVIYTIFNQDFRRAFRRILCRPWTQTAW
How it was run: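 Percent inhibition of specific [3H]Rauwolscine (2.5 nM) binding, compounds at ≤1 μM, 1% DMSO vehicle, 10 μM prazosin defining nonspecific. Receptor: human α2B expressed in CHO-K1 cells, 60 min incubation at 25 °C in Tris-HCl pH 7.4 buffer (MgCl2, EDTA, BSA); filtered, washed, counted.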

[3] = target: T3, rat adrenergic α1B receptor (Rattus norvegicus, UniProt P15823); experiment: Radioligand binding, adrenergic α1B receptor ([3H]Prazosin); settings: 0.1 μM compound, Wistar rat liver, read-out: Percentage inhibition of ligand binding, Adrenergic α1B
T3 construct: rat adrenergic α1B receptor obtained from Wistar Rat liver; from tissue; host or cells: Wistar rat liver
T3 sequence (P15823 1-515): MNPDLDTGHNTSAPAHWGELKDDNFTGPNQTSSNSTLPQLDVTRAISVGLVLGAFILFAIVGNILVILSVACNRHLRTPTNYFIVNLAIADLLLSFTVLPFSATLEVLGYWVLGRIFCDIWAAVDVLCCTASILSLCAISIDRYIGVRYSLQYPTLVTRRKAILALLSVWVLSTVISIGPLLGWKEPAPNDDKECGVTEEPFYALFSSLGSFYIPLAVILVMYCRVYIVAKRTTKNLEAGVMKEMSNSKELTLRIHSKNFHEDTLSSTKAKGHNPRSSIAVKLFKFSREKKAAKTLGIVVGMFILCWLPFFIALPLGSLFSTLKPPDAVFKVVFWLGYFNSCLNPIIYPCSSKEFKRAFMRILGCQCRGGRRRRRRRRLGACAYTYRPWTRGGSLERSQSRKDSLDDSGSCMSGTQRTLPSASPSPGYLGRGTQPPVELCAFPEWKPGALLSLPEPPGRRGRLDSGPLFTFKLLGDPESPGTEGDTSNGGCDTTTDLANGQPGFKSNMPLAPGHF
How it was run: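 Wistar rat liver α1B receptor preparation incubated with 0.25 nM [3H]prazosin and compound for 60 min at 25° C in 50 mM Tris-HCl pH 7.4, 0.5 mM EDTA; nonspecific binding defined with 10 μM phentolamine.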

[4] = target: T4, human recombinant adrenergic α1D receptor (Homo sapiens, UniProt P25100); experiment: Radioligand binding, adrenergic α1D receptor ([3H]Prazosin); settings: 0.1 μM compound; HEK-293 cells; 0.6 nM [3H]Prazosin; read-out: Percentage inhibition of ligand binding, Adrenergic α1D
T4 construct: expressed in transfected cells; host or cells: HEK-293
T4 sequence (P25100 1-572): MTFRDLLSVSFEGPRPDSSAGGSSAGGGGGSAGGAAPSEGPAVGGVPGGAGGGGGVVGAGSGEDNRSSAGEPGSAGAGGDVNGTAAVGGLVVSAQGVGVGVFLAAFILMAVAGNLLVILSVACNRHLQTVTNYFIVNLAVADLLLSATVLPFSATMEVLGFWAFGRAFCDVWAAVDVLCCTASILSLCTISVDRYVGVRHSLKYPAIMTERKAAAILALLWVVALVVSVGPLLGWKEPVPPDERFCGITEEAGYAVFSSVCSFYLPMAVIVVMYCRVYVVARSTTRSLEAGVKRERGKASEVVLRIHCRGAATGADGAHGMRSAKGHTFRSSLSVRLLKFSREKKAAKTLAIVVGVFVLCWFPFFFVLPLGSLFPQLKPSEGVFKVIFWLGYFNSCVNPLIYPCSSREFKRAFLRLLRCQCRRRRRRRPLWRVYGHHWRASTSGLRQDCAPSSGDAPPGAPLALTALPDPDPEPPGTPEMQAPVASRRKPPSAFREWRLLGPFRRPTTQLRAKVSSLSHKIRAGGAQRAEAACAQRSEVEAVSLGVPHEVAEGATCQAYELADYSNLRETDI
Experimental: Compounds were incubated with 0.6 nM [3H]Prazosin for 60 min at 25° C. Non-specific binding was estimated in the presence of 10 μM phentolamine. Receptor proteins were filtered and washed, the filters were then counted to determine [3H]Prazosin specifically bound. Compounds were screened at 1 μM or lower, using 1% DMSO as vehicle. Biochemical assay results are presented as the percent inhibition of specific binding in Table 2.

| Structure (SMILES) | inhibition at 0.1 µM [1] | inhibition at 0.1 µM [2] | inhibition at 0.1 µM [3] | inhibition at 0.1 µM [4] |
| --- | --- | --- | --- | --- |
| Cc1ccc2c(c1)c1c(n2-c2cnc3ccccc3c2)CCN(C)C1 [Compound No. 88, 2,8-dimethyl-5-quinolin-3-yl-2,3,4,5-tetrahydro-1H-pyrido[4,3-b]indole] | 15% | 80% | 36% | 20% |
| Cc1ccc2c(c1)c1c(n2-c2ccccc2-c2ccnn2C)CCN(C)C1 [Compound 32] | 72% | 80% | 73% | 65% |
| Cc1ccc2c(c1)c1c(n2-c2cccs2)CCN(C)C1 [Compound 16, 2,8-dimethyl-5-thiophen-2-yl-2,3,4,5-tetrahydro-1H-pyrido[4,3-b]indole] | -1% | 16% | 8% | 16% |
| Cc1ccc2c(c1)c1c(n2-c2cscc2-c2sccc2C)CCN(C)C1 [Compound 39] | 98% | 70% | 67% | 62% |
| Cc1ccc2c(c1)c1c(n2-c2ccc3ccncc3c2)CCN(C)C1 [Compound No. 74, 5-(isoquinolin-7-yl)-2,8-dimethyl-2,3,4,5-tetrahydro-1H-pyrido[4,3-b]indole] | 38% | 70% | 41% | 18% |
| Cc1ccc2c(c1)c1c(n2-c2cscc2-c2cnc(N(C)C)nc2)CCN(C)C1 [Compound 40] | 91% | 89% | 43% | 79% |
| Cc1ccc2c(c1)c1c(n2-c2ccccc2-c2sccc2C)CCN(C)C1 [Compound No. 102, 2,8-dimethyl-5-(2-(3-methylthiophen-2-yl)phenyl)-2,3,4,5-tetrahydro-1H-pyrido[4,3-b]indole] | 85% | 90% | 57% | 50% |
| Cc1ccc2c(c1)c1c(n2-c2cscc2-c2ccnn2C)CCN(C)C1 [Compound No. 150] | 55% | 77% | 72% | 73% |
| CNC(=O)c1ccc(-c2cccc(-n3c4c(c5cc(C)ccc53)CN(C)CC4)c2)cn1 [Compound No. 75, 5-(3-(2,8-dimethyl-3,4-dihydro-1H-pyrido[4,3-b]indol-5(2H)-yl)phenyl)-N-methylpicolinamide] | 21% | 16% | 20% | 15% |
| CNC(=O)c1ccc(-c2cscc2-n2c3c(c4cc(C)ccc42)CN(C)CC3)cc1 [Compound No. 155] | 9% | 74% | 43% | 63% |
| Cc1ccc2c(c1)c1c(n2-c2cccc(-c3c(C)noc3C)c2)CCN(C)C1 [Compound No. 65, 4-(3-(2,8-dimethyl-3,4-dihydro-1H-pyrido[4,3-b]indol-5(2H)-yl)phenyl)-3,5-dimethylisoxazole] | 33% | 46% | 14% | 1% |
| Cc1ccc2c(c1)c1c(n2-c2cccc(-c3ccc(O)nc3)c2)CCN(C)C1 [Compound 52, 5-(3-(2,8-dimethyl-3,4-dihydro-1H-pyrido[4,3-b]indol-5(2H)-yl)phenyl)pyridin-2-ol] | 43% | 36% | 6% | -3% |
| Cc1ccc2c(c1)c1c(n2-c2cccc(-c3cccn3C)c2)CCN(C)C1 [Compound No. 69, 2,8-dimethyl-5-(3-(1-methyl-1H-pyrrol-2-yl)phenyl)-2,3,4,5-tetrahydro-1H-pyrido[4,3-b]indole] | 39% | 3% | 11% | 9% |
| Cc1ccc2c(c1)c1c(n2-c2ccccc2-c2ccc(C)nc2)CCN(C)C1 [Compound 59, 2,8-dimethyl-5-(2-(6-methylpyridin-3-yl)phenyl)-2,3,4,5-tetrahydro-1H-pyrido[4,3-b]indole] | 77% | 91% | 47% | 65% |
| Cc1cc(C)c2c(c1)c1c(n2-c2cccc3ncccc23)CCN(C)C1 [Compound 47] | 62% | 6% | 5% | 3% |
| Cc1ccc2c(c1)c1c(n2-c2cccc(-c3ccc(S(C)(=O)=O)cc3)c2)CCN(C)C1 [Compound No. 131, 2,8-dimethyl-5-(4′-(methylsulfonyl)biphenyl-3-yl)-2,3,4,5-tetrahydro-1H-pyrido[4,3-b]indole] | 75% | 28% | 0% | 3% |
| CC(=O)Nc1ccc(-c2ccccc2-n2c3c(c4cc(C)ccc42)CN(C)CC3)cn1 [Compound No. 83, N-(5-(2-(2,8-dimethyl-3,4-dihydro-1H-pyrido[4,3-b]indol-5(2H)-yl)phenyl)pyridin-2-yl)acetamide] | 20% | 71% | 18% | 64% |
| Cc1ccc2c(c1)c1c(n2-c2cccc(-c3cn[nH]c3)c2)CCN(C)C1 [Compound No. 70, 5-(3-(1H-pyrazol-4-yl)phenyl)-2,8-dimethyl-2,3,4,5-tetrahydro-1H-pyrido[4,3-b]indole] | 34% | 19% | 18% | 9% |
